Test results as given in ChEMBL document CHEMBL5143635, “Synthesis and biological evaluation of artemisinin derivatives as potential MS agents” (Bioorg Med Chem Lett, 2022).
Calls of active or inactive are those of the source. The rule behind the calls is not given here.

How the values were obtained:
[1] = Inhibition of Th17 cells differentiation in C57BL/6 mouse spleen CD4+ve Th cells assessed as decrease in IL-17A production at 10 uM measured after 4 days by flow cytometry analysis; format: functional; settings: C57BL/6, CD4+ve Th, 96 h, time 4 day
[2] = tested on: CD4+ve Th; test: Inhibition of Th17 cells differentiation in C57BL/6 mouse spleen CD4+ve Th cells assessed as decrease in IL-17A production at high concentrations measured after 4 days by flow cytometry analysis; format: functional, cell-based; settings: time 4.0 day
[3] = tested on: Mus musculus; test: Immunosuppressive activity in MOG 35-55 residues/pertussis toxin-immunized autoimmune encephalomyelitis C57BL/6 mouse model assessed as suppression of disease progression by measuring clinical cumulative score at 100 mg/kg,po administered daily from day 3 measured for 21 days; format: functional, organism-based; settings: time 21.0 day
[4] = Inhibition of Th1 cells differentiation in C57BL/6 mouse spleen CD4+ve Th cells assessed as decrease in IFNgamma production at 10 uM measured after 4 days by flow cytometry analysis (reference value: 41%); format: functional; settings: C57BL/6, CD4+ve Th, 96 h, time 4 day
[5] = Toxicity in MOG 35-55 residues/pertussis toxin-immunized autoimmune encephalomyelitis C57BL/6 mouse model assessed as change in body weight at 100 mg/kg,po administered daily from day 3 measured for 21 days; format: organism-based; settings: in vivo, 504 h, time 21 day
[6] = Inhibition of Th17 cells differentiation in C57BL/6 mouse spleen CD4+ve Th cells assessed as decrease in IL-17A production at 10 uM measured after 4 days by flow cytometry analysis (reference value: 28%); format: functional; settings: C57BL/6, CD4+ve Th, 96 h, time 4 day
[7] = Inhibition of Th17 cells differentiation in C57BL/6 mouse spleen CD4+ve Th cells assessed as decrease in IL-17A production at 10 uM measured after 4 days by flow cytometry analysis (reference value: 23%); format: functional; settings: C57BL/6, CD4+ve Th, 96 h, time 4 day

Row | SMILES | inhibition at 10 µM [1] [%] | inhibition [2] | other results
1 | C[C@H]1[C@@H](SC(=O)Nc2ccc(OC(F)(F)F)cc2)O[C@@H]2O[C@@]3(C)CC[C@H]4[C@H](C)CC[C@@H]1[C@@]24OO3 | < 6 | Active | –
2 | C[C@@H]1CC[C@H]2C(C)(C)[C@@H](OC(=O)Nc3ccc(OC(F)(F)F)cc3)O[C@@H]3O[C@@]4(C)CC[C@@H]1[C@]32OO4 | < 6 | Active | –
3 | C[C@H]1[C@@H](OC(=O)CCCC[C@H]2CCSS2)O[C@@H]2O[C@@]3(C)CC[C@H]4[C@H](C)CC[C@@H]1[C@@]24OO3 | – | – | Activity [3]: Active; inhibition at 10 µM [4]: 3%; Activity [5]: Toxic; inhibition at 10 µM [6]: 8%
4 | C[C@H]1[C@@H](S)O[C@@H]2O[C@@]3(C)CC[C@H]4[C@H](C)CC[C@@H]1[C@@]24OO3 | – | – | inhibition at 10 µM [7]: 12%
5 | C[C@@H]1CC[C@H]2[C@@](C)(F)[C@@H](OC(=O)Nc3ccc(OC(F)(F)F)cc3)O[C@@H]3O[C@@]4(C)CC[C@@H]1[C@]32OO4 | < 6 | Active | –
6 | C[C@@H]1CC[C@H]2[C@@](C)(Cl)[C@@H](OC(=O)Nc3ccc(OC(F)(F)F)cc3)O[C@@H]3O[C@@]4(C)CC[C@@H]1[C@]32OO4 | < 6 | Active | –
7 | C[C@H]1[C@@H](SC(=O)CCCC[C@H]2CCSS2)O[C@@H]2O[C@@]3(C)CC[C@H]4[C@H](C)CC[C@@H]1[C@@]24OO3 | < 6 | Active | –
